# Measurements from patent publication US4897397A, “Aryl-alkynoic, alkenoic or alkanoic compounds and compositions useful as antiallergy and anti-inflammatory agents” (Schering Corporation, priority 1988, dated 1990).
# Target: T1, 5-Lipoxygenase (Mus musculus, UniProt P48999)
# T1 construct: Use the interleukin-3-dependent murine mast cell clone, MC-9; endogenous in cells; host or cells: MC-9 murine mast cell clone (interleukin-3-dependent)
# T1 sequence (P48999 1-674): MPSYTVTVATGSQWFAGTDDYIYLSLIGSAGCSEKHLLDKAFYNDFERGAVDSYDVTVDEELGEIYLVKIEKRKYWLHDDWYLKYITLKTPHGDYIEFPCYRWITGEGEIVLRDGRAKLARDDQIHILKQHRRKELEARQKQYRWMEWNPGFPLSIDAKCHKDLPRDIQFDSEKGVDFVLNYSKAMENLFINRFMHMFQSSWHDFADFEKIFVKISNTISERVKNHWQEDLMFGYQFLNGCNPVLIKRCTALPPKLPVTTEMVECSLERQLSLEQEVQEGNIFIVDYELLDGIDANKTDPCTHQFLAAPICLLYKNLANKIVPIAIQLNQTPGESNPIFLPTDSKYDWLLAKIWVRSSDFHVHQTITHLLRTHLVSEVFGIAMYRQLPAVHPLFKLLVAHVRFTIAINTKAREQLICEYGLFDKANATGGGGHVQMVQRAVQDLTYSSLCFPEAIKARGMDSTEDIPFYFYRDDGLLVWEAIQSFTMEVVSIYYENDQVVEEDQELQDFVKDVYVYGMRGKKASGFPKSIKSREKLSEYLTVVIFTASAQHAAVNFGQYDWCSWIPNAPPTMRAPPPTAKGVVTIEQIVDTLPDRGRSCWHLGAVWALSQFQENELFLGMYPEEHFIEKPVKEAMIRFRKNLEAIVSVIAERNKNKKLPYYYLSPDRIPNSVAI
# Assay: 5-Lipoxygenase Assay (inhibition of LTC4 and 5-HETE production in MC-9 mast cells)
# Assay type: cell-based
# Details: MC-9 murine mast cells, [14C]-arachidonic acid, A23187
# Text: Use the interleukin-3-dependent murine mast cell clone, MC-9, to test the effects of representative compounds of the invention on lipoxygenase activity. Grow the MC-9 cell line in suspension culture (0.4 to 1.2×10^6 cells/ml) in RPMI 1640 medium (Gibco) with 10% fetal bovine serum (Hyclone) and 2-5% concanavalin-A conditioned supernatant (Musch et. al., (1985) Prostagandins 29, 405-4307). Harvest the cells, wash them twice by centrifugation, and resuspend them in a Ca^++ -free HEPES buffer (25 mM HEPES, 125 mM NaCl, 2.5 mMKCl, 0.7 mM MgCl2 0.5 mM EDTA and 10 mM glucose at pH 7.4).
# Preincubate MC-9 cells (0.39 ml at 7.5×10^6 cells/ml) without or with test compound dissolved in dimethylsulfoxide (DMSO) vehicle (to final volume 1 ml) for 4 minutes then incubate for 5 minutes with [^14 C]-arachidonic acid (Amersham, 59 Ci/mole) at a […] final concentration, and A23187 (Calbiochem) at a […] final concentration in […] of water:ethanol (9:1). Stop the reaction by addition of methanol (0.4 ml), and remove cellular debris by centrifugation. Run aliquots ([…]) of the incubations on a Waters two-pump HPLC system fitted with a Waters radial compression column (C18, 10 micron, 8×100 mm, micro-Bondapak) and C18 "Guard Pak". Initially elute the column at 3 ml/min with water:methanol:acetic acid (67:33:0.08) containing 1 mM EDTA adjusted to pH 6.0 with ammonium hydroxide (Pump A). At 4 minutes, establish a linear gradient to reach 100% methanol (Pump B) at 9 minutes. Between 13 and 14 minutes, exchange for the initial eluting solvent and by 19 minutes the column will be reequilibrated for the next sample. Analyze the effluent by a continuous flow radioactivity monitor (model ROMONA-D) interfaced with a Hewlett Packard Lab Automation System for quantitation of radioactive products.
# These products are predominantly leukotriene C4 (LTC4), which elutes at 6 minutes, and 5-hydroxeicosatetraenoic acid (5-HETE), which elutes at 11 minutes (Musch et. al., supra). […] Doses in table 1 are 50 μM unless otherwise noted.
row,SMILES,inhibition at 50 µM
1,O=C(O)CCC/C=C/c1cccc(OCc2cccnc2)c1,7%
2,O=C(O)CCC/C=C/c1cccc(OCC2CCCCO2)c1 (stereo not drawn),23%
3,CCOC(=O)CCC/C=C/c1cccc(OCc2c[nH]cn2)c1,89%
4,O=C(O)CCCC#Cc1cccc(OCc2ccccc2)c1,80%
5,O=C(O)CCCCCc1cccc(OCc2ccccc2)c1,80%

# Second part, the molecule after the results:
row,inhibition at 50 µM,SMILES
1,84%,O=C(O)CCC/C=C/c1cccc(OCc2ccccc2)c1
2,74%,O=C(O)CCC/C=C/c1cccc(Oc2ccccc2)c1
3,0%,O=C(O)CCC/C=C/c1cccc(SCc2ccccc2)c1
4,89%,O=C(O)CCC/C=C\c1cccc(OCc2ccccc2)c1
